Consider four molecules from article PMC3128661 (Bioorganic & medicinal chemistry letters, 2011).

The subject of one assay is E. coli (J-53). Particulars: ref [4],[7]; cited from earlier work.
For another assay, the system named is Gram+ bacteria. Particulars: ref [4],[7]; cited from earlier work.
Another assay concerns VRE. The experiment in a line: MIC determination in 96-well plates. Particulars: Enterococcus, read-out: MIC VRE. Type of assay: cell-based, E. faecium.

Bounds are passed on as bounds.

For the molecule `CCc1cc(Nc2cc(=O)n(CCCCO)c(=O)[nH]2)ccc1C` [Compound 1, HB-EMAU], in the assay with E. coli (J-53), the “activity against the Gram- bacterium E. coli” value was “inactive”. Also, in the assay with Gram+ bacteria, the “MIC values against various organisms” value was 2.5 to 5 mg/L.

`CCc1cc(Nc2nc(O)c3ncn(CCCCO)c3n2)ccc1C` [Compound 2b]: the MIC with VRE was > 80 mg/L.

`CCc1cc(Nc2cc3c(ncn3CCCCOC)c(=O)[nH]2)ccc1C` [Compound 19b]: the MIC with VRE was > 80 mg/L.

`CCc1cc(Nc2cc3c(ncn3CCCCN3CCOCC3)c(=O)[nH]2)ccc1C` [Compound 21b]: in the assay on VRE, the minimum inhibitory concentration (MIC) is > 80 mg/L.
